Source: patent US20160113925A1, “METHODS OF TREATING CANCER WITH A COMBINATION OF GLUCOSE MODULATORS AND BCL-2 INHIBITORS” (EMORY UNIVERSITY, priority 2014, published 2016)
Structures can show the parent of a compound that is named as a salt.

Legend:
Format in all cases: cell-based
[1] = tested on: L363, KMS11, MM.1S and AMO1 cell lines; test: Metabolic supplementation of glutamine deprived MM cell lines: reversal of sensitization to ABT-199; conditions: glutamine deprived L363, KMS11, MM.1S and AMO1 cell lines supplemented with metabolite
Description: The metabolic specificity of glutamine deprivation-induced sensitization to ABT-199 […]. Glutamine deprived cells were supplemented with various metabolites generated by metabolism of glutamine and evaluated for their ability to reverse sensitization to ABT-199. Glutamine deprived MM cell lines were supplemented with galactose, dimethyl fumarate, dimethyl succinate, oxaloacetic acid, 2 methyl pyruvate, a mixture of non-essential amino acids or cell permeant dimethyl alpha ketoglutarate (DMK).

MM cell lines = test: Sensitization of MM cell lines to ABT-199 (venetoclax) by ritonavir or DON; conditions: MM cell lines cultured with ritonavir (40 uM) or DON (0.1 mM); FIGS. 1 and 2
Description: (§1) Ritonavir is an HIV […] that is also a reversible non-competitive inhibitor of glucose transport through GLUT4. […] Glutamine antagonist DON (6-Diazo-5-oxo-L-norleucine) effectively block first step of glutaminolysis pathway and thus restrict cells for using glutamine.

MM patient samples = test: Sensitization of MM patient samples to ABT-199 (venetoclax) by ritonavir or DON; conditions: for efficacy of the combination with ABT-199 (venetoclax) in patient samples: highly responsive samples were from relapse refractory patients
Description: as §1

MM lines = test: Impact of glucose or glutamine withdrawal on sensitivity of MM lines to ABT-199 (venetoclax)
Experimental: Eight MM cell lines were assessed for induction of apoptosis upon culture in media deprived of glucose, glutamine or both nutrients. While all cells are growth inhibited the extent of apoptosis elicited was highly variable. […] Continued survival upon nutrient deprivation despite induction of BIM could be due to increased sequestration of BIM with the induced BCL-2. […] The BH3 mimetic ABT-199 (venetoclax) targets the BIM-BCL-2 interaction. The impact of either glucose or glutamine withdrawal on sensitivity to ABT-199 (venetoclax) was evaluated.

## COC(=O)C(C)=O [2 methyl pyruvate]
[1]
  reversal of glutamine deprivation-induced sensitization to ABT-199: only the addition of DMK reversed sensitization

## COC(=O)CCC(=O)C(=O)OC [DMK, dimethyl alpha ketoglutarate]
[1]
  reversal of glutamine deprivation-induced sensitization to ABT-199: reversed sensitization

## [N-]=[N+]=CC(=O)CC[C@H](N)C(=O)O [DON, 6-Diazo-5-oxo-L-norleucine]
MM cell lines
  sensitivity to ABT-199 (venetoclax) in MM cell lines: increased sensitivity
MM patient samples
  sensitivity to ABT-199 (venetoclax) in patient samples: increased sensitivity
  efficacy of the combination with ABT-199 (venetoclax) in patient samples: highly efficacious

## CC(C)c1nc(CN(C)C(=O)N[C@H](C(=O)N[C@@H](Cc2ccccc2)C[C@H](O)[C@H](Cc2ccccc2)NC(=O)OCc2cncs2)C(C)C)cs1 [Ritonavir, 1,3-thiazol-5-ylmethyl N-[(2S,3S,5S)-3-hydroxy-5-[[(2S)-3-methyl-2-[[methyl-[(2-propan-2-yl-1,3-thiazol-4-yl)methyl]carbamoyl]amino]butanoyl]amino]-1,6-diphenylhexan-2-yl]carbamate]
MM cell lines
  sensitivity to ABT-199 (venetoclax) in MM cell lines: significantly increased sensitivity
MM patient samples
  sensitivity to ABT-199 (venetoclax) in patient samples: significantly increased sensitivity
  efficacy of the combination with ABT-199 (venetoclax) in patient samples: highly efficacious

## COC(=O)/C=C/C(=O)OC [dimethyl fumarate]
[1]
  reversal of glutamine deprivation-induced sensitization to ABT-199: only the addition of DMK reversed sensitization

## COC(=O)CCC(=O)OC [dimethyl succinate]
[1]
  reversal of glutamine deprivation-induced sensitization to ABT-199: only the addition of DMK reversed sensitization

## O=C[C@H](O)[C@@H](O)[C@@H](O)[C@H](O)CO [galactose]
[1]
  reversal of glutamine deprivation-induced sensitization to ABT-199: only the addition of DMK reversed sensitization

## O=C(O)CC(=O)C(=O)O [oxaloacetic acid]
[1]
  reversal of glutamine deprivation-induced sensitization to ABT-199: only the addition of DMK reversed sensitization

## venetoclax [ABT-199 (venetoclax)]
MM lines
  sensitization of MM lines to ABT-199 (venetoclax) on nutrient withdrawal: sensitize all MM lines
